In PubChem BioAssay (NCI):
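Protocol summary: plate cells (96-well), add compound at 5 concentrations, incubate 48 h, interpolate endpoints linearly. GI50 is the concentration that inhibits growth by half. TGI: concentration producing complete growth inhibition.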

How the values were obtained:
Assay in all cases: DTP human tumour cell line panel, 48 h
[1] = system: HCT-116 colon
[2] = system: HS 578T breast
[3] = system: HT29 colon
[4] = system: K-562 leukemia
[5] = system: KM12 colon
[6] = system: LOX IMVI melanoma
[7] = system: M14 melanoma
[8] = system: MDA-MB-231 breast
[9] = system: MDA-N
[10] = system: NCI-H460 lung
[11] = system: NCI/ADR-RES ovarian
[12] = system: OVCAR-4 ovarian
[13] = system: SF-539 CNS
[14] = system: SK-MEL-2 melanoma
[15] = system: SK-MEL-5 melanoma
[16] = system: SNB-75 CNS
[17] = system: SW-620 colon
[18] = system: T-47D breast
[19] = system: UO-31 renal

Structure (SMILES): O=C1NN(c2ccccc2)C(=O)C2C3c4ccccc4C(c4ccccc43)C12 (centres undefined)
- TGI [1]: > 100 µM
- TGI [2]: > 100 µM
- TGI [3]: > 100 µM
- TGI [4]: > 100 µM
- TGI [5]: > 100 µM
- TGI [6]: > 100 µM
- TGI [7]: > 100 µM
- TGI [8]: > 100 µM
- TGI [9]: > 100 µM
- TGI [10]: > 100 µM
- TGI [11]: > 100 µM
- TGI [12]: > 100 µM
- TGI [13]: > 100 µM
- TGI [14]: > 100 µM
- TGI [15]: > 100 µM
- TGI [16]: > 100 µM
- TGI [17]: > 100 µM
- TGI [18]: > 100 µM
- TGI [19]: > 100 µM

Structure (SMILES): O=C(O)c1cc(Sc2ccc([N+](=O)[O-])c(C(=O)O)c2)ccc1[N+](=O)[O-]
- TGI [1]: > 100 µM
- TGI [2]: > 100 µM
- TGI [3]: > 100 µM
- TGI [4]: > 100 µM
- TGI [5]: > 100 µM
- TGI [6]: > 100 µM
- TGI [7]: > 100 µM
- TGI [8]: > 100 µM
- TGI [9]: > 100 µM
- TGI [10]: > 100 µM
- TGI [11]: > 100 µM
- TGI [12]: > 100 µM
- TGI [13]: > 100 µM
- TGI [14]: > 100 µM
- TGI [15]: > 100 µM
- GI50 [16]: > 100 µM
- TGI [16]: > 100 µM
- TGI [17]: > 100 µM
- TGI [18]: > 100 µM
- TGI [19]: > 100 µM
